Literature values in PubChem BioAssay AID1259409 (Chemical Carcinogenesis Research Information System (CCRIS), 2018).

System: rodent chemically induced tumor inhibition, incidence and multiplicity
Test: CCRIS tumor inhibitor studies

| Structure (SMILES) | tumour outcome (control, treated, inhibition, significance) (Carcinogen: AZOXYMETHANE, 25843-45-2, Dose [Inhibitor]: 0, 42 MG/KG BW IN 0.9% SALINE TWICE ON FIRST DAY THEN 0, 105 MG/KG 1/2 WK FOR DURATION OF STUDY (STUDY DURATION: 35 WK), Dose [Inhibitor]: 0, 42 MG/KG BW IN 0.9% SALINE TWICE ON FIRST DAY THEN 0, 105 MG/KG 1/2 WK FOR DURATION OF STUDY (STUDY DURATION: 35 WK), Route [Inhibitor]: INTRAPERITONEAL, Species: RAT, Strain/Sex: WISTAR/MALE, Target Tissue: Type of Lesion: COLON: TUMOR, Dose [Carcinogen]: 7.4 MG/KG BW IN 0.9% SALINE 1/WK FOR 10 WK, Promoter: NONE USED) | tumour outcome (control, treated, inhibition, significance) (Carcinogen: N-METHYL-N'-NITRO-N-NITROSOGUANIDINE, 70-25-7, Dose [Inhibitor]: 0, 42 MG/KG 2/24 HR BEGINNING POST CARCINOGEN TREATMENT THEN 1 WK LATER 105 MG/KG 1/2 WK (STUDY DURATION: 52 WK), Route [Inhibitor]: INTRAPERITONEAL, Species: RAT, Strain/Sex: WISTAR/MALE, Target Tissue: Type of Lesion: STOMACH: ADENOCARCINOMA, Dose [Carcinogen]: 75 UG/ML IN DRINKING WATER FOR 25 WK, Promoter: NONE USED) | tumour outcome (control, treated, inhibition, significance) (Carcinogen: 4-(METHYLNITROSAMINO)-1-(3-PYRIDYL)-1-BUTANONE (NNK) [64091-91-4], Dose [Inhibitor]: 1.5 UM/G DIET, BEGINNING 13 WKS AFTER CARCINOGEN/PROMOTER TREATMENT (STUDY DURATION: 42 WK), Route [Inhibitor]: DIET, Species: MOUSE, Strain/Sex: A/J/FEMALE (39,?)/(20,?), Target Tissue: Type of Lesion: LUNG: ADENOCARCINOMA, Dose [Carcinogen]: 3 µM WEEKLY FOR 8 DOSES, Promoter: BENZO[A]PYRENE [50-32-8]) | tumour outcome (control, treated, inhibition, significance) (Carcinogen: 4-(METHYLNITROSAMINO)-1-(3-PYRIDYL)-1-BUTANONE (NNK) [64091-91-4], Dose [Inhibitor]: 1.5 UM/G DIET, BEGINNING 13 WKS AFTER CARCINOGEN/PROMOTER TREATMENT (STUDY DURATION: 42 WK), Route [Inhibitor]: DIET, Species: MOUSE, Strain/Sex: A/J/FEMALE (39,?)/(20,?), Target Tissue: Type of Lesion: LUNG: ADENOMA, Dose [Carcinogen]: 3 µM WEEKLY FOR 8 DOSES, Promoter: BENZO[A]PYRENE [50-32-8]) | tumour outcome (control, treated, inhibition, significance) (Carcinogen: 4-(METHYLNITROSAMINO)-1-(3-PYRIDYL)-1-BUTANONE (NNK) [64091-91-4], Dose [Inhibitor]: 3 UM/G DIET, BEGINNING 13 WKS AFTER CARCINOGEN/PROMOTER TREATMENT (STUDY DURATION: 42 WK), Route [Inhibitor]: DIET, Species: MOUSE, Strain/Sex: A/J/FEMALE (39,?)(32,?), Target Tissue: Type of Lesion: LUNG: ADENOCARCINOMA, Dose [Carcinogen]: 3 µM WEEKLY FOR 8 DOSES, Promoter: BENZO[A]PYRENE [50-32-8]) | tumour outcome (control, treated, inhibition, significance) (Carcinogen: 4-(METHYLNITROSAMINO)-1-(3-PYRIDYL)-1-BUTANONE (NNK) [64091-91-4], Dose [Inhibitor]: 3 UM/G DIET, BEGINNING 13 WKS AFTER CARCINOGEN/PROMOTER TREATMENT (STUDY DURATION: 42 WK), Route [Inhibitor]: DIET, Species: MOUSE, Strain/Sex: A/J/FEMALE (39,?)/(32,?), Target Tissue: Type of Lesion: LUNG: ADENOMA, Dose [Carcinogen]: 3 µM WEEKLY FOR 8 DOSES, Promoter: BENZO[A]PYRENE [50-32-8]) | tumour outcome (control, treated, inhibition, significance) (Carcinogen: 7,12-DIMETHYLBENZ[A]ANTHRACENE, 57-97-6, Dose [Inhibitor]: 0, 75 UMOL/D IN 0.5 ML EMULPHOR EL-620 FOR 5 CONSECUTIVE DAYS BEGINNING AT 47 D OF AGE (STUDY DURATION: 155 D), Route [Inhibitor]: GAVAGE, Species: RAT, Strain/Sex: SPRAGUE-DAWLEY/FEMALE, Target Tissue: Type of Lesion: MAMMARY GLAND: TUMOR, Dose [Carcinogen]: 8 MG IN 1 ML SESAME OIL ONCE AT 50 D OF AGE, Promoter: NONE USED) | tumour outcome (control, treated, inhibition, significance) (Carcinogen: 7,12-DIMETHYLBENZ[A]ANTHRACENE, 57-97-6, Dose [Inhibitor]: 0, 150 UMOL/D IN 0.5 ML EMULPHOR EL-620 FOR 5 CONSECUTIVE DAYS BEGINNING AT 47 D OF AGE (STUDY DURATION: 155 D), Route [Inhibitor]: GAVAGE, Species: RAT, Strain/Sex: SPRAGUE-DAWLEY/FEMALE, Target Tissue: Type of Lesion: MAMMARY GLAND: TUMOR, Dose [Carcinogen]: 8 MG IN 1 ML SESAME OIL ONCE AT 50 D OF AGE, Promoter: NONE USED) |
| --- | --- | --- | --- | --- | --- | --- | --- | --- |
| NCCc1cc(O)c(O)cc1O | 14/20 (70%), 4/17 (24%), 66%, p<0.02 | 16/20 (80%), 9/20 (45%), 44%, p<0.05 |  |  |  |  |  |  |
| CS(=O)CCCCN=C=S (stereo not drawn) |  |  | 42%, 20%, 52%, not significant | 100%, 100%, 0%, not significant | 42%, 28%, 33%, not significant | 100%, 93%, 7%, not significant | 17/25 (68%), 7/20 (35%), 49%, p<0.05 | 17/25 (68%), 5/19 (26%), 62%, p<0.05 |
